Experimental data taken from US7524853B2 (Solvay Pharmaceuticals B.V., priority 2003, dated 2009).

Assays:
Format in all cases: cell-based
[1] = biological target: T1, 17β-hydroxysteroid dehydrogenase type 3 (17β-HSD type 3) (Homo sapiens, UniProt P37058); test: Inhibition of 17β-HSD type 3 in MCF-7 cells stably expressing the isoenzyme (tritium labeled androstenedione conversion, HPLC); details: MCF7, MCF-7 cells expressing 17β-HSD type 3, 2 nM tritium labeled androstenedione; for inhibition at 1 µM: 1 μM test compound, read-out: % Inhibition HSD3 1 μM; for inhibition at 10 µM: 10 μM test compound, read-out: % Inhibition HSD3 10 μM
T1 construct: expressed in transfected cells; host or cells: MCF-7
T1 sequence (P37058 1-310): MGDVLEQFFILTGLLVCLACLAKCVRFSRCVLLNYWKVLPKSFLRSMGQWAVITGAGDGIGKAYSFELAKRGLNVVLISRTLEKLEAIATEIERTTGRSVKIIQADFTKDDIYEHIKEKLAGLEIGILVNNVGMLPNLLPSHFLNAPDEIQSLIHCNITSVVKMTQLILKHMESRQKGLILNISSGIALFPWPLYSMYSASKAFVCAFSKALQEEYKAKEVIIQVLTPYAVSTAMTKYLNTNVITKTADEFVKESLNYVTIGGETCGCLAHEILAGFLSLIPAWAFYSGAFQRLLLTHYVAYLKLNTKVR
How it was run: (§1)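 Cells: stable MCF-7 transfectants per isoenzyme. Step one, add compound (two concentrations) plus 2 nM labelled substrate to growth medium. Step two, remove medium at a set time and stop with trichloroacetic acid. Step three, quantify conversion by HPLC with flow scintillation.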

[2] = biological target: T2, 17β-hydroxysteroid dehydrogenase type 2 (17β-HSD type 2) (Homo sapiens, UniProt P37059); test: Inhibition of 17β-HSD type 2 in MCF-7 cells stably expressing the isoenzyme (tritium labeled estradiol conversion, HPLC); details: MCF7, MCF-7 cells expressing 17β-HSD type 2, 2 nM tritium labeled estradiol; for inhibition at 1 µM: 1 μM test compound, read-out: % Inhibition HSD2 1 μM; for inhibition at 10 µM: 10 μM test compound, read-out: % Inhibition HSD2 10 μM
T2 construct: expressed in transfected cells; host or cells: MCF-7
T2 sequence (P37059 1-387): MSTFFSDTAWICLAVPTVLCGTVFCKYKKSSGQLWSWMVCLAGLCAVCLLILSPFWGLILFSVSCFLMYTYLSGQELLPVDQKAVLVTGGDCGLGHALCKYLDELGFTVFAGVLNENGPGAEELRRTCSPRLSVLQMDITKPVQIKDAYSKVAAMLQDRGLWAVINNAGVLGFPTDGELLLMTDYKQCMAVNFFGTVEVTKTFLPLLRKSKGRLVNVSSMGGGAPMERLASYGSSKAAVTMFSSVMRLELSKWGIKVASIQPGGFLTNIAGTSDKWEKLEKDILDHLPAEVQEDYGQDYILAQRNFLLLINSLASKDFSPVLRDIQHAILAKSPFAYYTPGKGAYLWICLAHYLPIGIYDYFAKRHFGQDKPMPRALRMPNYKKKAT
How it was run: as §1

[3] = biological target: T3, 17β-hydroxysteroid dehydrogenase type 1 (17β-HSD type 1) (Homo sapiens, UniProt P14061); test: Inhibition of 17β-HSD type 1 in MCF-7 cells stably expressing the isoenzyme (tritium labeled estrone conversion, HPLC); details: MCF7, MCF-7 cells expressing 17β-HSD type 1, 2 nM tritium labeled estrone; for inhibition at 1 µM: 1 μM test compound, read-out: % Inhibition HSD1 1 μM; for inhibition at 10 µM: 10 μM test compound, read-out: % Inhibition HSD1 10 μM
T3 construct: expressed in transfected cells; host or cells: MCF-7
T3 sequence (P14061 1-328): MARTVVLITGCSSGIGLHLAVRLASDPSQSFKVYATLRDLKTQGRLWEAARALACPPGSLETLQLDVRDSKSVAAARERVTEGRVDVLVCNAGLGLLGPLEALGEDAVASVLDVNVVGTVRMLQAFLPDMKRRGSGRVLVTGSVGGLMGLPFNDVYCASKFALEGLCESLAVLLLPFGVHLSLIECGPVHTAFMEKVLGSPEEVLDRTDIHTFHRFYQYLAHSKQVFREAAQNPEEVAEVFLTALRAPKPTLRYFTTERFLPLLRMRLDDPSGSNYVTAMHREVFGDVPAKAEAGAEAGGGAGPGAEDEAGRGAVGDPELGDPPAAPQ
How it was run: as §1

Row | Compound | inhibition at 1 µM [1] [%] | inhibition at 10 µM [1] [%] | inhibition at 1 µM [2] [%] | inhibition at 10 µM [2] [%] | inhibition at 1 µM [3] [%] | inhibition at 10 µM [3] [%]
1 | CCCc1nc2sc3c(c2c(=O)n1Cc1ccc(Br)o1)CCC(Br)C3=O (stereo not drawn) [No. 103, 7-Bromo-3-(5-bromofuran-2-ylmethyl)-2-propyl-6,7-dihydro-3H,5H-benzo[4,5]thieno[2,3-d]pyrimidine-4,8-dione] | -7.7 | 51.8 | 30.7 | 49.7 | 16.2 | 70.6
2 | CCCc1nc2sc3c(O)cccc3c2c(=O)n1Cc1ccc(Br)o1 [No. 105, 3-(5-Bromofuran-2-ylmethyl)-8-hydroxy-2-propyl-3H-benzo[4,5]thieno[2,3-d]pyrimidin-4-one] | 17.7 | 67.3 | 50.7 | 85.9 | 29.8 | 61.2
3 | CCCc1nc2sc3c(OC(C)=O)cccc3c2c(=O)n1Cc1ccc(Br)o1 [No. 106, Acetic acid 3-(5-bromofuran-2-ylmethyl)-4-oxo-2-propyl-3,4-dihydro-benzo[4,5]thieno[2,3-d]pyrimidin-8-yl ester] | 8.1 | 71.1 | 50 | 86.2 | 28.8 | 72.5
4 | COCCn1c(-c2cc(OC)c(OC)c(OC)c2)nc2sc3c(c2c1=O)CCCC3=O [No. 109, 3-(2-Methoxyethyl)-2-(3,4,5-trimethoxyphenyl)-6,7-dihydro-3H,5H-benzo[4,5]thieno[2,3-d]pyrimidine-4,8-dione] | 0.6 | 11.6 | 6 | 9.7 | -0.2 | 20.7
5 | COCCn1c(-c2cc(OC)c(OC)c(OC)c2Br)nc2sc3c(c2c1=O)CCC(Br)C3=O (stereo not drawn) [No. 111, 7-Bromo-2-(2-bromo-3,4,5-trimethoxyphenyl)-3-(2-methoxyethyl)-6,7-dihydro-3H,5H-benzo[4,5]thieno[2,3-d]pyrimidine-4,8-dione] | 7.3 | 41.5 | 24.7 | 48.7 | 23.8 | 56.9
6 | COCCn1c(-c2cc(OC)c(OC)c(OC)c2Br)nc2sc3c(O)cccc3c2c1=O [No. 112, 2-(2-Bromo-3,4,5-trimethoxyphenyl)-8-hydroxy-3-(2-methoxyethyl)-3H-benzo[4,5]thieno[2,3-d]pyrimidin-4-one] | 7 | 49.4 | 14.6 | 46.3 | 28.3 | 54.4
7 | COc1cc(-c2nc3sc4c(c3c(=O)n2CC(C)C)CCCC4)cc(OC)c1OC [No. 113, 3-Isobutyl-2-(3,4,5-trimethoxyphenyl)-5,6,7,8-tetrahydro-3H-benzo[4,5]thieno[2,3-d]pyrimidin-4-one] | 2.7 | 48.9 | 8.2 | 7.7 | 22.2 | 57.6
8 | COc1cc(-c2nc3sc4c(c3c(=O)n2CC(C)C)CCC(Br)C4=O)cc(OC)c1OC (stereo not drawn) [No. 115, 7-Bromo-3-isobutyl-2-(3,4,5-trimethoxyphenyl)-6,7-dihydro-3H,5H-benzo[4,5]thieno[2,3-d]pyrimidine-4,8-dione] | 7.6 | 20.7 | 18.7 | 19.5 | 22.9 | 70.3
9 | COc1cc(-c2nc3sc4c(OC(C)=O)cccc4c3c(=O)n2CC(C)C)c(Br)c(OC)c1OC [No. 118, Acetic acid 2-(2-bromo-3,4,5-trimethoxyphenyl)-3-isobutyl-4-oxo-3,4-dihydro-benzo[4,5]-thieno[2,3-d]pyrimidin-8-yl ester] | 10.8 | 24.4 | 23.6 | 24.4 | 31 | 51.5
10 | COc1cc(-c2nc3sc4c(c3c(=O)n2Cc2ccco2)CCCC4)cc(OC)c1OC [No. 119, 3-Furan-2-ylmethyl-2-(3,4,5-trimethoxylphenyl)-5,6,7,8-tetrahydro-3H-benzo[4,5]thieno[2,3-d]pyrimidin-4-one] | 2.3 | 19.1 | 25.1 | 30.1 | 9.6 | 27.9

Other lines, results leading:

Row | inhibition at 1 µM [1] [%] | inhibition at 10 µM [1] [%] | inhibition at 1 µM [2] [%] | inhibition at 10 µM [2] [%] | inhibition at 1 µM [3] [%] | inhibition at 10 µM [3] [%] | Compound
11 | -5 | 51.4 | 26.6 | 47.9 | 20.2 | 42.6 | CCCc1nc2sc3c(c2c(=O)n1Cc1ccc(Br)o1)CCC(Br)(Br)C3=O [No. 104, 7,7-Dibromo-3-(5-bromofuran-2-ylmethyl)-2-propyl-6,7-dihydro-3H,5H-benzo[4,5]thieno[2,3-d]pyrimidine-4,8-dione]
12 | 3.2 | 44.3 | 25.4 | 45.7 | -14.2 | 24.7 | CCCc1nc2sc3c(O)c(Br)ccc3c2c(=O)n1Cc1ccc(Br)o1 [No. 107, 7-Bromo-3-(5-bromofuran-2-ylmethyl)-8-hydroxy-2-propyl-3H-benzo[4,5]thieno[2,3-d]pyrimidin-4-one]
13 | 0.8 | 9.8 | 9.6 | 7.4 | 5.2 | 11 | COCCn1c(-c2cc(OC)c(OC)c(OC)c2)nc2sc3c(c2c1=O)CCCC3 [No. 108, 3-(2-Methoxyethyl)-2-(3,4,5-trimethoxyphenyl)-5,6,7,8-tetrahydro-3H-benzo[4,5]thieno[2,3-d]pyrimidin-4-one]
14 | 2.4 | 32 | 15.5 | 25.3 | 15.5 | 55.9 | COc1cc(-c2nc3sc4c(c3c(=O)n2CC(C)C)CCCC4=O)cc(OC)c1OC [No. 114, 3-Isobutyl-2-(3,4,5-trimethoxyphenyl)-6,7-dihydro-3H,5H-benzo[4,5]thieno[2,3-d]pyrimidine-4,8-dione]
15 | 8.1 | 21.2 | 28 | 26.1 | 12.5 | 41.4 | COc1cc(-c2nc3sc4c(c3c(=O)n2CC(C)C)CCC(Br)C4=O)c(Br)c(OC)c1OC (stereo not drawn) [No. 116, 7-Bromo-2-(2-bromo-3,4,5-trimethoxypheny1)-3-isobutyl-6,7-dihydro-3H,5H-benzo[4,5]thieno[2,3-d]pyrimidine-4,8-dione]
16 | 19.7 | 44.1 | 19.7 | 20.7 | 39.3 | 62.2 | COc1cc(-c2nc3sc4c(O)cccc4c3c(=O)n2CC(C)C)c(Br)c(OC)c1OC [No. 117, 8-Hydroxy-3-isobutyl-2-(2-bromo-3,4,5-trimethoxyphenyl)-3H-benzo[4,5]thieno[2,3-d]pyrimidin-4-one]
